Measurements taken from patent publication US9580449B2, “Compositions and methods for the production of pyrimidine and pyridine compounds with BTK inhibitory activity” (Merck Patent GmbH, priority 2011, dated 2017).

What follows are compounds tested against full-length human BTK (Homo sapiens (Human), UniProt Q06187) (assay: BTK IC50 enzyme assay (microfluidic off-chip mobility shift kinase assay)). Details: incubated for 90 min. at 27 C; read-out: Time Dependent BTK Enzyme Assay IC50.
Chain of full-length human BTK (Q06187 whole entry): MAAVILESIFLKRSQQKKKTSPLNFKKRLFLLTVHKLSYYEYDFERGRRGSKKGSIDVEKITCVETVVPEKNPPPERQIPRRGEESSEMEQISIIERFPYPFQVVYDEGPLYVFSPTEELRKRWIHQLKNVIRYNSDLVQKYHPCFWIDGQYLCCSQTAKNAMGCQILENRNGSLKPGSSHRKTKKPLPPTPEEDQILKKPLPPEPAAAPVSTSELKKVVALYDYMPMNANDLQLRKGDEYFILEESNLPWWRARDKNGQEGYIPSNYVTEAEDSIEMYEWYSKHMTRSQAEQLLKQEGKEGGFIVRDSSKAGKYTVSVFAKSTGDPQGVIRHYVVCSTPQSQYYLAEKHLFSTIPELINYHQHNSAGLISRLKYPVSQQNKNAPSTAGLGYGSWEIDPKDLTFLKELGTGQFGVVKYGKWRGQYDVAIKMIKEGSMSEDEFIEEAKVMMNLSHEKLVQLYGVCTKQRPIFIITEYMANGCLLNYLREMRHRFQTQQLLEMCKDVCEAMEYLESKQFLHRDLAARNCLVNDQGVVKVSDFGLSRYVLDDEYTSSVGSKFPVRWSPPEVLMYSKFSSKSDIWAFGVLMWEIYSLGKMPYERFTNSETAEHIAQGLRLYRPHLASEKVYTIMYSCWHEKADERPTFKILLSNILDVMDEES
Format: biochemical
Experimental: The following describes a microfluidic, off-chip mobility shift kinase assay used to measure inherent potency of compounds against BTK enzyme. Compounds described by embodiments of the present invention were assayed using this protocol and the data from the same is recorded in Table 2 within the column labeled: “Time Dependent BTK Enzyme Assay IC50”.
Stopped reactions were monitored at −2 PSI, −3000 V/−700 V in a LabChip 3000 plate reader from Caliper Life Sciences, a PerkinElmer Company (Hopkinton, Mass.), and the activity was measured by off-chip mobility shift assay measuring the charge/mass difference between substrate and product resulting from peptide phosphorylation. IC50 and efficacy were determined by plotting log [Inhibitor] vs. % Activity in GeneData Screener (Basel, Switzerland). […] I<1 uM and II>1 uM.
`C=CC(=O)N1CCC(CNc2ncnc(N)c2-c2ccc(OCc3ccccc3)cc2)CC1` [A292, 1-(4-(((6-amino-5-(4-(benzyloxy)phenyl)pyrimidin-4-yl)amino)methyl)piperidin-1-yl)prop-2-en-1-one] gave an IC50 of under 1000 nM.
Compound `CN(C)C/C=C/C(=O)N1CCC[C@@H](Nc2ncnc(N)c2-c2ccc(Oc3ccccc3)cc2)C1` [A74, (R,E)-1-(3-((6-amino-5-(4-phenoxyphenyl)pyrimidin-4-yl)amino)piperidin-1-yl)-4-(dimethylamino)but-2-en-1-one] has an IC50 of under 1000 nM.
In the case of `C=CC(=O)NCCNc1ncnc(N)c1-c1ccc(Oc2ccccc2)cc1` [A18, N-(2-((6-amino-5-(4-phenoxyphenyl)pyrimidin-4-yl)amino)ethyl)acrylamide], the IC50 is reported as under 1000 nM.
`Nc1ncnc(N[C@@H]2CCN(S(=O)(=O)c3c(F)c(F)c(F)c(F)c3F)C2)c1-c1ccc(Oc2ccccc2)cc1` [A178, (R)-N4-(1-((perfluorophenyl)sulfonyl)pyrrolidin-3-yl)-5-(4-phenoxyphenyl)pyrimidine-4,6-diamine] showed an IC50 of under 100 nM.
In the case of `C#CC(=O)N1CC2(CC(Oc3ncnc(N)c3-c3cnn(Cc4ccccc4)c3)C2)C1` [A112, 1-(6-((6-amino-5-(1-benzyl-1H-pyrazol-4-yl)pyrimidin-4-yl)oxy)-2-azaspiro[3.3]heptan-2-yl)prop-2-yn-1-one], the IC50 is reported as under 100 nM.
In the case of `C=CC(=O)N1CCC(Nc2ncnc(N)c2-c2ccc(Oc3ccccc3)cc2)CC12CCC2` (stereo not shown) [A125, 1-(8-((6-amino-5-(4-phenoxyphenyl)pyrimidin-4-yl)amino)-5-azaspiro[3.5]nonan-5-yl)prop-2-en-1-one], the IC50 is reported as over 1000 nM.
In the case of `C=CC(=O)N1CC[C@@H](CNc2ncnc(N)c2-c2cnn(Cc3ccccc3)c2)[C@H](O)C1` [A109, 1-((3S,4S)-4-(((6-amino-5-(1-benzyl-1H-pyrazol-4-yl)pyrimidin-4-yl)amino)methyl)-3-hydroxypiperidin-1-yl)prop-2-en-1-one], the IC50 is reported as under 100 nM.
Compound `Nc1ncnc(Oc2cccc(NC(=O)CCl)c2)c1-c1ccc(OCc2ccccc2)c(F)c1` [A351, N-{3-[6-Amino-5-(4-benzyloxy-3-fluoro-phenyl)-pyrimidin-4-yloxy]-phenyl}-2-chloro-acetamide] has an IC50 of under 100 nM.
In the case of `C=CC(=O)Nc1cccc(Oc2ncnc(N)c2-c2cnn(Cc3ccc(C#N)cc3)c2)c1` [A69, N-(3-((6-amino-5-(1-(4-cyanobenzyl)-1H-pyrazol-4-yl)pyrimidin-4-yl)oxy)phenyl)acrylamide], the IC50 is reported as under 1000 nM.
With `C=CC(=O)N1C2CCC1CC(CNc1ncnc(N)c1-c1ccc(Oc3ccc(C#N)cc3)cc1)C2` (stereo not shown) [A208, 4-(4-(4-(((8-acryloyl-8-azabicyclo[3.2.1]octan-3-yl)methyl)amino)-6-aminopyrimidin-5-yl)phenoxy)benzonitrile] the IC50 was over 1000 nM.
In the case of `C=CC(=O)N1CCC=C(c2cnccc2Oc2ccc(Oc3ccccc3)cc2)C1` [A288, 1-(4′-(4-phenoxyphenoxy)-5,6-dihydro-[3,3′-bipyridin]-1(2H)-yl)prop-2-en-1-one], the IC50 is reported as under 1000 nM.
`C=CC(=O)N1CCC(CNc2ncnc(N)c2-c2ccc(OC(F)(F)F)cc2)CC1` [A78, 1-(4-(((6-amino-5-(4-(trifluoromethoxy)phenyl)pyrimidin-4-yl)amino)methyl)piperidin-1-yl)prop-2-en-1-one] was tested, and the IC50 was over 1000 nM.
`C=CC(=O)NC1(CNc2ncnc(N)c2-c2ccc(Oc3ccccc3)cc2)CCCC1` [A20, N-(1-(((6-amino-5-(4-phenoxyphenyl)pyrimidin-4-yl)amino)methyl)cyclopentyl)acrylamide] showed an IC50 of over 1000 nM.
`C=CC(=O)N1CCC(CNc2ncnc(N)c2-c2ccc(Oc3cccc(C(F)(F)F)c3)cc2)CC1` [A95, 1-(4-(((6-amino-5-(4-(3-(trifluoromethyl)phenoxy)phenyl)pyrimidin-4-yl)amino)methyl)piperidin-1-yl)prop-2-en-1-one] gave an IC50 of under 100 nM.
With `C=CC(=O)Nc1ccc(Oc2ncnc(N)c2-c2ccc(Oc3ccccc3)cc2)cc1` [A280, N-(4-((6-amino-5-(4-phenoxyphenyl)pyrimidin-4-yl)oxy)phenyl)acrylamide] the IC50 was under 100 nM.
`C=CC(=O)N1CC[C@@H](O)[C@H](Nc2ncnc(N)c2-c2ccc(Oc3ccccc3)cc2)C1` (racemic) [A210, 1-((3R,4R)-3-((6-amino-5-(4-phenoxyphenyl)pyrimidin-4-yl)amino)-4-hydroxypiperidin-1-yl)prop-2-en-1-one] gave an IC50 of under 1000 nM.
`CN(C)C/C=C/C(=O)N[C@H]1C[C@H](Nc2ncnc(N)c2-c2ccc(Oc3ccccc3)cc2)C1` [A228, (E)-N-(1,3-trans-3-((6-amino-5-(4-phenoxyphenyl)pyrimidin-4-yl)amino)cyclobutyl)-4-(dimethylamino)but-2-enamide] was tested, and the IC50 was under 1000 nM.
In the case of `C=CC(=O)N1CCC=C(c2c(N)ncnc2Oc2ccc(Oc3ccccc3)cc2)C1` [A279, 1-(3-(4-amino-6-(4-phenoxyphenoxy)pyrimidin-5-yl)-5,6-dihydropyridin-1(2H)-yl)prop-2-en-1-one], the IC50 is reported as under 100 nM.
For `C=CC(=O)N1CCC=C(c2c(N)ncnc2Nc2ccc(Oc3ccccc3)cc2)C1` [A273, 1-(3-(4-amino-6-((4-phenoxyphenyl)amino)pyrimidin-5-yl)-5,6-dihydropyridin-1(2H)-yl)prop-2-en-1-one], the IC50 was under 100 nM.
`C=CC(=O)NCc1ccc(-c2cnccc2Oc2ccc(Oc3ccccc3)cc2)cc1` [A287, N-(4-(4-(4-phenoxyphenoxy)pyridin-3-yl)benzyl)acrylamide] gave an IC50 of under 1000 nM.
`NCc1cccc(-c2cnccc2Oc2ccc(Oc3ccccc3)cc2)c1` [A316, (3-(4-(4-phenoxyphenoxy)pyridin-3-yl)phenyl)methanamine] showed an IC50 of over 1000 nM.
In the case of `C=CS(=O)(=O)Nc1cccc(Oc2ncnc(N)c2-c2ccc(Oc3ccccc3)cc2)c1` [A58, N-(3-((6-amino-5-(4-phenoxyphenyl)pyrimidin-4-yl)oxy)phenyl)ethenesulfonamide], the IC50 is reported as under 100 nM.
In the case of `C=CC(=O)N1CC[C@@H](Oc2ncnc(N)c2-c2ccc(Oc3ccccc3)cc2)C1` [A19, (R)-1-(3-((6-amino-5-(4-phenoxyphenyl)pyrimidin-4-yl)oxy)pyrrolidin-1-yl)prop-2-en-1-one], the IC50 is reported as under 100 nM.
`C=CC(=O)Nc1cccc(Oc2ncnc(N)c2-c2cnn(Cc3cccc(C(F)(F)F)c3)c2)c1` [A195, N-(3-((6-amino-5-(1-(3-(trifluoromethyl)benzyl)-1H-pyrazol-4-yl)pyrimidin-4-yl)oxy)phenyl)acrylamide] showed an IC50 of under 100 nM.
`C=CC(=O)Nc1cccc(Oc2ncnc(N)c2-c2cnn(Cc3cccc(Cl)c3)c2)c1` [A191, N-(3-((6-amino-5-(1-(3-chlorobenzyl)-1H-pyrazol-4-yl)pyrimidin-4-yl)oxy)phenyl)acrylamide] was tested, and the IC50 was under 100 nM.
Work on `C#CC(=O)N1C2CCC1CC(CNc1ncnc(N)c1-c1ccc(Oc3ccccc3)cc1)C2` (stereo not shown) [A68, 1-(3-(((6-amino-5-(4-phenoxyphenyl)pyrimidin-4-yl)amino)methyl)-8-azabicyclo[3.2.1]octan-8-yl)prop-2-yn-1-one] yielded an IC50 of under 100 nM.
`C=CC(=O)Nc1cccc(-c2cncnc2Nc2ccc(Oc3ccccc3)cc2)c1` [A283, N-(3-(4-((4-phenoxyphenyl)amino)pyrimidin-5-yl)phenyl)acrylamide] gave an IC50 of under 1000 nM.
With `C=CC(=O)Nc1cccc(Nc2ncncc2-c2ccc(Oc3ccccc3)cc2)n1` [A167, N-(6-((5-(4-phenoxyphenyl)pyrimidin-4-yl)amino)pyridin-2-yl)acrylamide] the IC50 was under 100 nM.
Compound `CC#CC(=O)N1CCC(COc2ncnc(N)c2-c2ccc(Oc3ccccc3)cc2)CC1` [A9, 1-(4-(((6-amino-5-(4-phenoxyphenyl)pyrimidin-4-yl)oxy)methyl)piperidin-1-yl)but-2-yn-1-one] has an IC50 of under 100 nM.
With `C=CC(=O)N1CCC(CNc2ncnc(N)c2-c2ccc(Oc3ccc(O)cc3)cc2)CC1` [A94, 1-(4-(((6-amino-5-(4-(4-hydroxyphenoxy)phenyl)pyrimidin-4-yl)amino)methyl)piperidin-1-yl)prop-2-en-1-one] the IC50 was over 1000 nM.
For `C=CC(=O)Nc1cccc(Oc2ncnc(N)c2-c2ccc(OCc3ccccc3)c(F)c2)c1` [A348, N-{3-[6-Amino-5-(4-benzyloxy-3-fluoro-phenyl)-pyrimidin-4-yloxy]-phenyl}-acrylamide], the IC50 was under 100 nM.
`C=CC(=O)NCCCNc1ncnc(N)c1-c1ccc(Oc2ccccc2)cc1` [A59, N-(3-((6-amino-5-(4-phenoxyphenyl)pyrimidin-4-yl)amino)propyl)acrylamide] gave an IC50 of under 1000 nM.
In the case of `C=CC(=O)Nc1cccc(Oc2ncnc(N)c2-c2cnn(Cc3cccc(N(C)C)c3)c2)c1` [A212, N-(3-((6-amino-5-(1-(3-(dimethylamino)benzyl)-1H-pyrazol-4-yl)pyrimidin-4-yl)oxy)phenyl)acrylamide], the IC50 is reported as under 100 nM.
In the case of `C=CC(=O)N1CCC(F)(CNc2ncnc(N)c2-c2ccc(Oc3ccccc3)cc2)CC1` [A225, 1-(4-(((6-amino-5-(4-phenoxyphenyl)pyrimidin-4-yl)amino)methyl)-4-fluoropiperidin-1-yl)prop-2-en-1-one], the IC50 is reported as under 100 nM.
`C=CC(=O)NC1CC2(C1)CC(Nc1ncnc(N)c1-c1ccc(Oc3ccccc3)cc1)C2` (stereo not shown) [A122, N-(6-((6-amino-5-(4-phenoxyphenyl)pyrimidin-4-v)amino)spiro[3.3]heptan-2-yl)acrylamide] showed an IC50 of over 1000 nM.
`C=CC(=O)N1CCC(CNc2ncnc(N)c2-c2ccc(C(=O)Nc3ccccc3)cc2)CC1` [A157, 4-(4-(((1-acryloylpiperidin-4-yl)methyl)amino)-6-aminopyrimidin-5-yl)-N-phenylbenzamide] showed an IC50 of over 1000 nM.
For `CN(C)C/C=C/C(=O)N1CCC2(CC(Nc3ncnc(N)c3-c3ccc(Oc4ccccc4)cc3)C2)C1` (stereo not shown) [A226, (E)-1-(2-((6-amino-5-(4-phenoxyphenyl)pyrimidin-4-yl)amino)-6-azaspiro[3.4]octan-6-yl)-4-(dimethylamino)but-2-en-1-one], the IC50 was under 1000 nM.
